Measured values from patent EP0520722B1, “Therapeutic preparations containing quinazoline derivatives” (ZENECA LIMITED, priority 1991, dated 1992).
Counter-ions that a name gives are not always drawn.

Tests used:
receptor tyrosine kinase = molecular target: T1, receptor tyrosine kinase (Homo sapiens, UniProt P00533); assay: Test (a): in vitro receptor tyrosine kinase inhibition assay (EGF-stimulated peptide phosphorylation, [γ-32P]ATP); format: biochemical; conditions: enzyme partially purified from A-431 cells (human vulval carcinoma); in presence of EGF; 25°C for 10 minutes
T1 construct: The supernatant, containing solubilised receptor tyrosine kinase, was stored in liquid nitrogen; endogenous in cells; host or cells: A-431 cells (human vulval carcinoma); detergent-solubilised membrane fraction
T1 sequence (P00533 25-1210): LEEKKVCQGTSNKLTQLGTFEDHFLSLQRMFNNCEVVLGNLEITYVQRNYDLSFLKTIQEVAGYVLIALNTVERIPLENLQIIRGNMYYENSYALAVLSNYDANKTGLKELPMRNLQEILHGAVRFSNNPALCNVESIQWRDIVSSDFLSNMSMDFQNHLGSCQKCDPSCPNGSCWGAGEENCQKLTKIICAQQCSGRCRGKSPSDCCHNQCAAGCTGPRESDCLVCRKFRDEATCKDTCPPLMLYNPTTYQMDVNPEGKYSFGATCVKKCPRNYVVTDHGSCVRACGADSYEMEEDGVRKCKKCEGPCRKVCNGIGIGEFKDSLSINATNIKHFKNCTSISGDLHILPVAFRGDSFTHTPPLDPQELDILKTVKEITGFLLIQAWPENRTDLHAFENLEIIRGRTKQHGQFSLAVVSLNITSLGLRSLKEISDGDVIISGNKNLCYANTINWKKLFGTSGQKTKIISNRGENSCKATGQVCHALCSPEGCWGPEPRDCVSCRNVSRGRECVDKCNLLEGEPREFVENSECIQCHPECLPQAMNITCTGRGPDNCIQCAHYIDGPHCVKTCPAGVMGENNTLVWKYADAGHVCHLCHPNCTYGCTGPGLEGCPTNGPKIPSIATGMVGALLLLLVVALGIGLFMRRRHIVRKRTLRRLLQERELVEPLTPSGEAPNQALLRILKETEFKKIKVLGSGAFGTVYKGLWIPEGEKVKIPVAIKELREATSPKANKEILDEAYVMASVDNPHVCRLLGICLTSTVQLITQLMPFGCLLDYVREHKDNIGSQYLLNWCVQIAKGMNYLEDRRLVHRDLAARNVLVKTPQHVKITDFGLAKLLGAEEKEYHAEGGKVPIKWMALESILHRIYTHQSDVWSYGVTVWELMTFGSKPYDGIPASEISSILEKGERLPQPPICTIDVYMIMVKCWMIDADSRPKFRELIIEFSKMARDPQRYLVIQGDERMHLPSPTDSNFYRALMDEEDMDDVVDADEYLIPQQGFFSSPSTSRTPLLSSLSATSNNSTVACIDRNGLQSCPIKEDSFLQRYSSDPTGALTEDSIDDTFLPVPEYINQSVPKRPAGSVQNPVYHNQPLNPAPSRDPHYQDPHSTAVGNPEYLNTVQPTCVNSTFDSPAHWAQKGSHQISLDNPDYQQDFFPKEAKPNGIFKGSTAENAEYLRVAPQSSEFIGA
Procedure: (a) An in vitro assay which determines the ability of a test compound to inhibit the enzyme receptor tyrosine kinase. Receptor tyrosine kinase was obtained in partially purified form from A-431 cells (derived from human vulval carcinoma) by procedures related to those described by Carpenter et al., J. Biol. Chem., 1979, 254, 4884, Cohen et al., J. Biol. Chem., 1982, 257, 1523 and by Braun et al., J. Biol. Chem., 1984, 259, 2051.
A-431 cells were grown to confluence using Dulbecco′s modified Eagle′s medium (DMEM) containing 5% fetal calf serum (FCS). The obtained cells were homogenised in a hypotonic borate/EDTA buffer at pH 10.1. The homogenate was centrifuged at 400 g for 10 minutes at 0-4°C. The supernatant was centrifuged at 25,000 g for 30 minutes at 0-4°C. The pelleted material was suspended in 30 mM Hepes buffer at pH 7.4 containing 5% glycerol, 4 mM benzamidine and 1% Triton X-100, stirred for 1 hour at 0-4°C, and recentrifuged at 100,000 g for 1 hour at 0-4°C. The supernatant, containing solubilised receptor tyrosine kinase, was stored in liquid nitrogen.
For test purposes 40 µl of the enzyme solution so obtained was added to a mixture of 400 µl of a mixture of 150 mM Hepes buffer at pH 7.4, 500 µM sodium orthovanadate, 0.1% Triton X-100, 10% glycerol, 200 µl water, 80 µl of 25 mM DTT and 80µl of a mixture of 12.5 mM manganese chloride, 125 mM magnesium chloride and distilled water. There was thus obtained the test enzyme solution.
Each test compound was dissolved in dimethylsulphoxide (DMSO) to give a 50 mM solution which was diluted with 40 mM Hepes buffer containing 0.1% Triton X-100, 10% glycerol and 10% DMSO to give a 500 µM solution. Equal volumes of this solution and a solution of epidermal growth factor (EGF; 20 µg/ml) were mixed.
[γ-^32P]ATP (3000 Ci/mM, 250 µCi) was diluted to a volume of 2 ml by the addition of a solution of ATP (100 µM) in distilled water. An equal volume of a 4 mg/ml solution of the peptide Arg-Arg-Leu-Ile-Glu-Asp-Ala-Glu-Tyr-Ala-Ala-Arg-Gly in a mixture of 40 mM Hepes buffer at pH 7.4, 0.1% Triton X-100 and 10% glycerol was added.
The test compound/EGF mixture solution (5 µl) was added to the test enzyme solution (10 µl) and the mixture was incubated at 0-4°C for 30 minutes. The ATP/peptide mixture (10 µl) was added and the mixture was incubated at 25°C for 10 minutes. […] Radioactivity present in the filter paper was measured using a liquid scintillation counter (Sequence A). […]
Receptor tyrosine kinase inhibition was calculated as follows:- % Inhibition =[…] [formula]
The extent of inhibition was then determined at a range of concentrations of test compound to give an IC50 value.

[1] = system: human naso-pharyngeal cell line KB; assay: Test (b): in vitro inhibition of EGF-stimulated growth of KB cells (MTT); format: cell-based; conditions: 72 h, EGF (10 ng/ml), incubation for 3 days
Procedure: (b) An in vitro assay which determines the ability of a test compound to inhibit the growth of the human naso-pharyngeal cell line KB.
KB cells were seeded into wells at a density of 1 x 10 - 1.5 x 10^4 cells per well and grown for 24 hours in DMEM supplemented with 5% FCS (charcoal-stripped). Cell growth was determined after incubation for 3 days by the extent of metabolism of MTT tetrazolium dye to furnish a bluish colour. Cell growth was then determined in the presence of EGF (10 ng/ml) or in the presence of EGF (10 ng/ml) and a test compound at a range of concentrations. An IC50 value could then be calculated.

Row | IC50 (receptor tyrosine kinase) | IC50 [1] | Compound
1 | 20 nM | 780 nM | Brc1cccc(Nc2ncnc3ccccc23)c1 [4-(3'-bromoanilino)quinazoline, 4-(3'-bromoanilino)quinazoline hydrochloride]
2 | 40 nM | ~5000 nM | Clc1cccc(Nc2ncnc3ccccc23)c1 [4-(3'-chloroanilino)quinazoline, 4-(3′-chloroanilino)quinazoline hydrochloride]
3 | 180 nM | ~5000 nM | Cc1cccc(Nc2ncnc3ccccc23)c1 [4-(3'-methylanilino)-quinazoline]
4 | 20 nM | 1000 nM | Clc1cccc(Nc2ncnc3cc(Cl)ccc23)c1 [7-chloro-4-(3'-chloroanilino)quinazoline]
